Results from ChEMBL document CHEMBL4483862, “Open-source discovery of chemical leads for next-generation chemoprotective antimalarials” (2018).
pIC50: −log10 of the molar value.

System: Plasmodium berghei
Assay: Luciferase/luciferin-expressing antifolate-resistant parasites were used to infect a culture of HepG2 cells that were pre-incubated with compounds. Infected hepatocytes emit light due to the luciferase reaction. Assay results are presented as the percent inhibition of light emission compared to control. […]
Assay type: functional
Details: sporozoite; for pIC50: read-out: LUCIFERASE INFECTION ASSAY - IC50; for IC90: read-out: LUCIFERASE INFECTION ASSAY - IC90

Row | Structure (SMILES) | pIC50 | IC90
1 | CC(C)c1ccc(Nc2ncc3c(n2)CCN(C(=O)Nc2ccc(F)c(Cl)c2)C3)cc1 | < 5.12 | > 7.5 µM
2 | O=C(Nc1ccc(OC(F)(F)F)cc1)N1CCc2nc(NCc3cccc(Oc4ccccc4)c3)ncc2C1 | < 5.21 | > 6.16 µM
3 | CC(C)c1ccc(NC(=O)N2CCc3nc(NCc4cccc(Oc5ccccc5)c4)ncc3C2)cc1 | < 5.17 | > 6.69 µM
4 | Cc1cc(-c2cn3c(-c4ccc5ncccc5c4)cnc3cn2)cc(C)c1O | 5.07 | > 9.01 µM
5 | Oc1cccc(-c2cnc3cnc(-c4cccs4)cn23)c1 | < 4.95 | > 11.2 µM
6 | OCc1ccc(-c2cnc3cnc(-c4ccco4)cn23)cc1 | < 4.95 | > 11.3 µM
7 | OCc1ccc(-c2cnc3cnc(-c4cccc(F)c4)cn23)cc1 | < 4.99 | > 10.3 µM
8 | COc1ccc(N2CCN(c3nccnc3-c3ccccc3)CC2)cc1OC | 6.42 | 0.978 µM
9 | CN(C)c1cccc(-c2cnc3cnc(-c4ccc(C(=O)NCCO)cc4)cn23)c1 | < 5.09 | > 8.22 µM
10 | Cn1ccc2cc(-c3cn4c(-c5ccc(C(=O)NC6CC6)cc5)cnc4cn3)ccc21 | 5.57 | 3.32 µM
11 | COc1cc(-c2cnc3cnc(-c4ccc(C(=O)NCCN(C)C)cc4)cn23)ccc1O | < 5.12 | > 7.65 µM
12 | Cc1ccc(-c2cnc3ccc(NC4CCOCC4)nn23)cc1 | 5.50 | 10.4 µM
13 | O=C(Nc1ccc(OC(F)(F)F)cc1)N1CCc2nc(Nc3cc(Cl)cc(Cl)c3)ncc2C1 | < 5.18 | > 6.62 µM
14 | CCCN1CCc2nc(Nc3ccc(Oc4ccccc4)cc3)ncc2C1 | < 5.04 | > 9.16 µM
15 | COc1ccc(-c2cnc3ccc(NCc4ccc5c(c4)OCO5)nn23)cc1 | 6.13 | 1.36 µM
16 | Cc1c(C(=O)Nc2cccc(Oc3ccccc3)c2)sc(=O)n1Cc1ccncc1 | < 5.10 | > 7.9 µM
17 | O=C(NC1CCCC1)c1ccc(-c2cn3c(-c4ccc5ncccc5c4)cnc3cn2)cc1 | < 5.12 | > 7.61 µM
18 | CS(=O)(=O)Nc1cccc(-c2cn3c(-c4cccc(CO)c4)cnc3cn2)c1 | < 5.08 | > 8.37 µM
19 | Cn1ccc2cc(-c3cnc4cnc(-c5ccc(C(=O)NCCO)cc5)cn34)ccc21 | 5.21 | 7.65 µM
20 | Cc1c(C(=O)NC2CC2)sc(=O)n1Cc1ccc(-c2ccccc2)cc1 | 5.72 | 8.88 µM
21 | CCNC(=O)N1CCc2nc(Nc3cc(Cl)cc(Cl)c3)ncc2C1 | < 5.05 | > 9.01 µM

Row | Structure (SMILES) | pIC50 | IC90
22 | c1cncc(-c2cn3c(-c4cccs4)cnc3cn2)c1 | < 4.92 | > 11.9 µM
23 | c1cncc(-c2cn3c(-c4ccsc4)cnc3cn2)c1 | < 4.92 | > 11.9 µM
24 | CC(C)c1ccc(NC(=O)N2Cc3cnc(Nc4ccc(OCCN5CCCC5)cc4)nc3C2)cc1 | < 5.17 | > 6.78 µM
25 | c1ccc(Oc2ccccc2-c2cnc3c(NCc4cccs4)nccn23)cc1 | 5.30 | > 8.28 µM
26 | CCCN1CCc2nc(NCc3ccc(Oc4ccccc4)cc3)ncc2C1 | < 5.06 | > 8.81 µM
27 | OCc1ccc(-c2cnc3cnc(-c4ccc(Cl)cc4)cn23)cc1 | < 5.01 | > 9.83 µM
28 | COc1cc(-c2cccc(Nc3cccc(OC(F)(F)C(F)F)c3)n2)cc(OC)c1OC | < 5.14 | > 7.29 µM
29 | O=C(COc1ccccc1)N1CCc2nc(NCc3cccc(Oc4ccccc4)c3)ncc2C1 | < 5.15 | > 7.07 µM
30 | COc1cc(NC(=O)N2Cc3cnc(Nc4cccc(N(C)C)c4)nc3C2)cc(OC)c1OC | < 5.15 | > 7.1 µM
31 | COc1cc(-c2cnc3cnc(-c4cccc(NC(C)=O)c4)cn23)cc(OC)c1OC | 5.41 | > 7.89 µM
32 | c1ccc(CN2CCc3nc(NCc4cccc(Oc5ccccc5)c4)ncc3C2)cc1 | < 5.11 | > 7.81 µM
33 | CCNc1cc(C(=O)Nc2ccccc2)ncn1 | 6.02 | > 13.6 µM
34 | c1ccc(Cn2cc(-c3cn4c(-c5ccc6ncccc6c5)cnc4cn3)cn2)cc1 | < 5.09 | > 8.2 µM
35 | Clc1ccc(-c2cnc3ccc(NCc4ccc5c(c4)OCO5)nn23)cc1 | < 5.06 | > 8.71 µM
36 | c1ccc(CN2CCc3nc(NCc4ccc(Oc5ccccc5)cc4)ncc3C2)cc1 | < 5.11 | > 7.81 µM
37 | O=C(Nc1cccnc1)N1CCc2nc(Nc3cc(Cl)cc(Cl)c3)ncc2C1 | < 5.10 | > 7.95 µM
38 | CCCN1CCc2nc(NCc3ccc(Cl)c(Cl)c3)ncc2C1 | 5.25 | > 9.39 µM
39 | CC(C)(C)c1cccc(Nc2ncc(C(=O)c3ccccc3)[nH]2)c1 | 5.06 | > 10.3 µM
40 | COc1ccc(-c2cnc3ccc(NCc4ccc(Cl)c(Cl)c4)nn23)cn1 | 5.33 | 4.73 µM
41 | CCn1c2ccccc2c2cc(Nc3cc(-c4ccc(O)cc4)ncn3)ccc21 | 5.65 | 5.79 µM
42 | COc1ccccc1-c1cnc2c(Nc3ccc(NS(=O)(=O)c4ccc(C)cc4)cc3)nccn12 | 5.80 | > 6.8 µM

Row | Structure (SMILES) | pIC50 | IC90
43 | O=C(c1cccc(Cl)c1)c1cnc(Nc2cccc(C(F)(F)F)c2)[nH]1 | 5.26 | > 9.02 µM
44 | COc1ccc(CNC(=O)N2CCc3nc(NCc4cccc(Oc5ccccc5)c4)ncc3C2)cc1 | < 5.18 | > 6.66 µM
45 | O=C(Nc1ccc(F)c(Cl)c1)N1CCc2nc(Nc3cc(Cl)cc(Cl)c3)ncc2C1 | < 5.15 | > 7.07 µM
46 | CN1CCN(C(=O)c2cccc(-c3cnc4cnc(-c5ccc(Cl)cc5)cn34)c2)CC1 | < 5.12 | > 7.64 µM
47 | COc1ccc(-c2cnc3cnc(-c4cccc(NS(C)(=O)=O)c4)cn23)cn1 | 5.37 | 7.13 µM
48 | OCc1ccc(-c2cnc3cnc(-c4ccccc4CO)cn23)cc1 | < 5.00 | > 9.96 µM
49 | CN(C)CCNC(=O)c1ccc(-c2cnc3c(Nc4ccc(Oc5ccccc5)cc4)nccn23)cc1 | < 5.17 | > 6.7 µM
50 | CCCN1CCc2nc(Nc3ccc(OCc4ccccc4)cc3)ncc2C1 | < 5.06 | > 8.81 µM
51 | OCc1ccccc1-c1cn2c(-c3ccc(Oc4ccccc4)cc3)cnc2cn1 | 6.19 | 8.14 µM
52 | CN(C)C(=O)c1ccc(-c2cnc3cnc(-c4ccc(F)c(Cl)c4)cn23)cc1 | < 5.08 | > 8.36 µM
53 | COc1ccc(-c2cnc3cnc(-c4ccc5c(c4)OCO5)cn23)cc1 | 5.75 | 4.64 µM
54 | COc1cc(NC(=O)N2Cc3cnc(Nc4ccc(OCc5ccccc5)cc4)nc3C2)cc(OC)c1OC | < 5.20 | > 6.25 µM
55 | c1ccc(NCc2ccc(-c3cn4c(-c5ccncc5)cnc4cn3)cc2)cc1 | < 5.06 | > 8.74 µM
56 | Clc1ccc(CNc2ncc3c(n2)CCN(Cc2ccccc2)C3)cc1Cl | < 5.08 | > 8.26 µM
57 | O=C(NCCc1cccs1)N1CCc2nc(NCc3cccc(Oc4ccccc4)c3)ncc2C1 | < 5.17 | > 6.8 µM
58 | O=C(Cc1ccccc1)NCC(=O)N1CCc2nc(NCc3cccc(Oc4ccccc4)c3)ncc2C1 | < 5.19 | > 6.5 µM
59 | CN(C)c1cccc(Nc2nccn3c(-c4ccc5c(c4)OCO5)cnc23)c1 | 6.44 | 2.84 µM
60 | Cn1ccc2cc(-c3cn4c(-c5ccncc5)cnc4cn3)ccc21 | < 5.00 | > 10.1 µM
61 | OCc1cccc(-c2cnc3cnc(-c4ccccc4Oc4ccccc4)cn23)c1 | < 5.08 | > 8.39 µM
